Laboratory results reported in ChEMBL document CHEMBL3865826, “Synthesis and biological evaluation of a series of non-hemiacetal ester derivatives of artemisinin” (Eur J Med Chem, 2016).

How the values were obtained:
Plasmodium falciparum [1] = experiment: Antiplasmodial activity against chloroquine-resistant asexual erythrocyte stage form Plasmodium falciparum Dd2 measured after 48 hrs by pLDH assay; format: functional; settings: Dd2, 48 h
[2] = Cytotoxicity against CHO cells assessed as reduction in cell viability measured after 48 hrs by MTT assay; format: toxicity, cell-based, Cricetulus griseus; settings: Chinese hamster
[3] = Selectivity index, ratio of IC50 for CHO cells to IC50 for chloroquine-sensitive asexual erythrocyte stage form Plasmodium falciparum NF54; format: toxicity, cell-based; settings: hamster, read-out: Ratio IC50
MCF7 = experiment: Selectivity index, ratio of IC50 for human WI38 cells to IC50 for human MCF7 cells; format: functional
[4] = Thermal stability of the compound assessed as onset of decomposition temperature by thermogravimetric analysis; format: physicochemical
[5] = Cytotoxicity against human WI38 cells assessed as reduction in cell viability measured after 48 hrs by SRB assay; format: toxicity, cell-based, WI-38
[6] = Growth inhibition of human TK10 cells measured after 24 hrs by SRB assay; format: functional, cell-based; settings: TK-10, 24 h
WI-38 = experiment: Selectivity index, ratio of IC50 for human WI38 cells to IC50 for human TK10 cells; format: functional
[7] = Thermal stability of the compound assessed as transition temperature by differential scanning calorimetry; format: physicochemical
[8] = Growth inhibition of human MCF7 cells measured after 24 hrs by SRB assay; format: functional, cell-based; settings: MCF7, 24 h
[9] = Selectivity index, ratio of IC50 for human UACC62 cells to IC50 for chloroquine-resistant asexual erythrocyte stage form Plasmodium falciparum Dd2; format: functional, UACC-62
[10] = Growth inhibition of human UACC62 cells measured after 24 hrs by SRB assay; format: functional, cell-based; settings: UACC-62, 24 h
[11] = Selectivity index, ratio of IC50 for human TK10 cells to IC50 for chloroquine-resistant asexual erythrocyte stage form Plasmodium falciparum Dd2; format: functional, TK-10
Plasmodium falciparum [12] = experiment: Antiplasmodial activity against chloroquine-sensitive asexual erythrocyte stage form Plasmodium falciparum NF54 measured after 48 hrs by pLDH assay; format: functional; settings: NF54, 48 h
[13] = Resistance index, ratio of IC50 for chloroquine-resistant asexual erythrocyte stage form Plasmodium falciparum Dd2 to IC50 for chloroquine-sensitive asexual erythrocyte stage form Plasmodium falciparum NF54; format: functional
CHO [14] = experiment: Selectivity index, ratio of IC50 for CHO cells to IC50 for human MCF7 cells; format: functional
[15] = Selectivity index, ratio of IC50 for human WI38 cells to IC50 for chloroquine-sensitive asexual erythrocyte stage form Plasmodium falciparum NF54; format: toxicity, cell-based, WI-38; settings: read-out: Ratio IC50
[16] = Thermal stability of the compound assessed as melting point by thermogravimetric analysis; format: physicochemical
CHO [17] = experiment: Selectivity index, ratio of IC50 for CHO cells to IC50 for human TK10 cells; format: functional
CHO [18] = experiment: Selectivity index, ratio of IC50 for CHO cells to IC50 for human UACC62 cells; format: functional
UACC-62 = experiment: Selectivity index, ratio of IC50 for human WI38 cells to IC50 for human UACC62 cells; format: functional
[19] = Safety index, ratio of compound IC50 to emetine IC50 for human WI38 cells; format: ADME, cell-based, WI-38; settings: read-out: Ratio IC50
[20] = Selectivity index, ratio of IC50 for human MCF7 cells to IC50 for chloroquine-resistant asexual erythrocyte stage form Plasmodium falciparum Dd2; format: functional
[21] = Safety index, ratio of compound IC50 to emetine IC50 for CHO cells; format: ADME, cell-based, Cricetulus griseus; settings: Chinese hamster, read-out: Ratio IC50
[22] = Thermal stability of the compound assessed as endotherm temperature by differential scanning calorimetry; format: physicochemical

| Compound | IC50 (Plasmodium falciparum [1]) | IC50 at 48 h [2] | selectivity ratio [3] | Ratio IC50 (MCF7) | T [4] | IC50 at 48 h [5] | IC50 [6] | Ratio IC50 (WI-38) | T [7] | IC50 [8] | Ratio IC50 [9] | IC50 [10] | Ratio IC50 [11] | IC50 (Plasmodium falciparum [12]) | Ratio IC50 [13] | Ratio IC50 (CHO [14]) | selectivity ratio [15] | Tm [16] | Ratio IC50 (CHO [17]) | Ratio IC50 (CHO [18]) | further results |
| --- | --- | --- | --- | --- | --- | --- | --- | --- | --- | --- | --- | --- | --- | --- | --- | --- | --- | --- | --- | --- | --- |
| C[C@@H]1CC[C@H]2C(C)(COC(=O)c3ccc([N+](=O)[O-])cc3)O[C@@H]3O[C@]4(C)CC[C@@H]1[C@]32OO4 (stereo partly specified) | 2.6 nM | > 100 µM | > 14900 | >2 | 220 °C | > 100 µM | 56 µM | >2 | 110 °C | 44400 nM | 17077 | > 100 µM | 21539 | 6.7 nM | 0.4 | >2 | > 14900 | 172.4 °C | >2 | – | – |
| C[C@@H]1CC[C@H]2C(C)(COC(=O)[C@@H]3CCCN3C(=O)C(F)(F)F)O[C@@H]3O[C@]4(C)CC[C@@H]1[C@]32OO4 (stereo partly specified) | 7.8 nM | 97.1 µM | 12300 | 11 | 126 °C | 31.6 µM | 13 µM | 2 | 116 °C | 2900 nM | 385 | 3 µM | 1667 | 7.9 nM | 1 | 33.5 | 4000 | 172.2 °C | 7.5 | 32.4 | Ratio IC50 (UACC-62): 11; selectivity ratio [19]: ≤ 600; Ratio IC50 [20]: 372; selectivity ratio [21]: ≤ 600 |
| CC(=O)OCC1(C)O[C@@H]2O[C@]3(C)CC[C@H]4[C@H](C)CC[C@@H]1[C@@]24OO3 (stereo partly specified) | 12.6 nM | > 100 µM | > 8920 | – | 164 °C | > 100 µM | > 100 µM | – | – | > 100000 nM | – | > 100 µM | – | 11.2 nM | 1.1 | – | > 8920 | 171.2 °C | – | – | T [22]: 90 °C |
| C[C@@H]1CC[C@H]2C(C)(COC(=O)c3ccc(F)cc3)O[C@@H]3O[C@]4(C)CC[C@@H]1[C@]32OO4 (stereo partly specified) | 4.4 nM | > 100 µM | 27000 | >40 | – | > 100 µM | 41.7 µM | >2 | – | 2500 nM | 1846 | 12 µM | 6415 | 3.7 nM | 1.2 | >40 | > 27000 | 171.9 °C | >2 | >8 | Ratio IC50 (UACC-62): >8; Ratio IC50 [20]: 385 |
